≈ marks a conversion by molar mass, not a printed value.
Key:
[1] = Distribution coefficient, log D of the compound; assay type: physicochemical; details: octanol/water
Plasmodium falciparum = assay: Antimalarial activity against Plasmodium falciparum K1; assay type: functional, organism-based

Structure (SMILES)	logD [1]	IC50 (Plasmodium falciparum)
CC(C)(N)CNC(=O)C[C@H]1CC[C@]2(CC1)OO[C@]1(O2)C2CC3CC1C[C@](O)(C3)C2	1.8	> 0.1 µg/mL
CC(C)(N)CNC(=O)C[C@H]1CC[C@]2(CC1)OO[C@]1(O2)C2CC3CC1C[C@@](O)(C3)C2	1.8	> 0.1 µg/mL
CC(C)(N)CNC(=O)C[C@H]1CC[C@]2(CC1)OO[C@]1(O2)C2CC3CC(C2)CC1C3 [OZ277]	3.2	0.001 µg/mL (≈ 0.00255 µM)

Reference: ChEMBL document CHEMBL1143120, “Characterization of the two major CYP450 metabolites of ozonide (1,2,4-trioxolane) OZ277” (Bioorg Med Chem Lett, 2008)
